From patent US8916551B2, “Heterocyclic compound and use thereof” (Takeda Pharmaceutical Company Limited, priority 2010, dated 2014)

Key:
[1] = target: T1, AMPA receptor (human GluR1 flip/stargazin expressed in CHO-K1 cells) (Homo sapiens, UniProt P42261); experiment: AMPA receptor function enhancing activity using calcium influx as index; format: cell-based; conditions: 100% = 3 mM glutamic acid + 300 μM cyclothiazide, 0% = 3 mM glutamic acid only
T1 construct: expressed in transfected cells; host or cells: CHO-K1
T1 sequence (P42261 19-906 isoform P42261-2 limits assumed): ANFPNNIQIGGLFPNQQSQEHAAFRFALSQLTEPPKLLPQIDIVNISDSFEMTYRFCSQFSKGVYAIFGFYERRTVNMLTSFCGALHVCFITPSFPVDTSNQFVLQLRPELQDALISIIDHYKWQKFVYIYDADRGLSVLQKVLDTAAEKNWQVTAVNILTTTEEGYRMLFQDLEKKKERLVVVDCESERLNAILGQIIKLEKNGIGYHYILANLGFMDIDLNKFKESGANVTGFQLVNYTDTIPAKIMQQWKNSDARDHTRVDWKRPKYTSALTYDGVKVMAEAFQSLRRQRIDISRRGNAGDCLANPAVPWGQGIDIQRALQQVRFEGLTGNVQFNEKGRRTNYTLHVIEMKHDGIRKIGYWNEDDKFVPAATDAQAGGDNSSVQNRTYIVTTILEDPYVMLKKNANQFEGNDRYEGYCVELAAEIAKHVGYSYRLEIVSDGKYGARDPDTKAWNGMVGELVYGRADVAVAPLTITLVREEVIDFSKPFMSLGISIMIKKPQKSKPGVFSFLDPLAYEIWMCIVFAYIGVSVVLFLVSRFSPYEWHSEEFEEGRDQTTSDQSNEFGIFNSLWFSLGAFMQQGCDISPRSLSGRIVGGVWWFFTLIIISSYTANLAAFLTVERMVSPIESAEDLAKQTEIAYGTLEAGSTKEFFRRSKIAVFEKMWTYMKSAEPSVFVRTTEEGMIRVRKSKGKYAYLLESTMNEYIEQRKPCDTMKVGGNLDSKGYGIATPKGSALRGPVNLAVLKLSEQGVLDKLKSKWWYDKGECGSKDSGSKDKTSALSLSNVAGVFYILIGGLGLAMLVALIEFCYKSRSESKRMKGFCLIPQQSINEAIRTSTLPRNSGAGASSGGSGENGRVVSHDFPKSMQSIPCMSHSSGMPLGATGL
T1 sequence (Q9Y698 whole entry partner): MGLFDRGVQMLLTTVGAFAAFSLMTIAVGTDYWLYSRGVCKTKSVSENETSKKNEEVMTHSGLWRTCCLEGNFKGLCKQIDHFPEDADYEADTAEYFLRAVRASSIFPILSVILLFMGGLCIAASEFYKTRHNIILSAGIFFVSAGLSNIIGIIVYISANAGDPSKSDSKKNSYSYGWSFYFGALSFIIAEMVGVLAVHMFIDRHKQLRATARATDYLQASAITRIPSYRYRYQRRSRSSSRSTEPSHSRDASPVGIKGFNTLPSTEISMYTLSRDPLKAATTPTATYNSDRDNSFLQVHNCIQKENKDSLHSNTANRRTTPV
In short: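 CHO-K1 clone stably co-expressing human GluR1 flip and stargazin, loaded with Calcium 4 dye plus probenecid. Compound at 30 μM was added with glutamate (3 mM final) and fluorescence change followed over 3 min. Activity is expressed as % of the 3 mM glutamate plus 300 μM cyclothiazide response, with glutamate alone as 0%.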

[2] = test compound 30 μM with glutamic acid final 3 mM, change in fluorescence in 3 min
[3] = test compound 30 μM with 3 mM glutamic acid, change in fluorescence level in 3 min

COc1ccc2ccc(OC3=CC=CN4CCS(=O)(=O)N=C34)cc2c1 [Example 59, 9-[(7-methoxynaphthalen-2-yl)oxy]-3,4-dihydropyrido[2,1-c][1,2,4]thiadiazine 2,2-dioxide]
activity (%) [1, 2]: 72%
melting point: 235 to 237 °C

CC(C)c1ccc(OCC2=CC=CN3CCS(=O)(=O)N=C23)cc1 [Example 61, 9-{[4-(1-methylethyl)phenoxy]methyl}-3,4-dihydropyrido[2,1-c][1,2,4]thiadiazine 2,2-dioxide]
activity (%) [1, 2]: 75%
melting point: 212 to 214 °C

O=S1(=O)CCN2CCC[C@@H](c3ccc(Oc4ccccc4)cc3)C2=N1 [Example 63, (9S)-9-(4-phenoxyphenyl)-3,4,6,7,8,9-hexahydropyrido[2,1-c][1,2,4]thiadiazine 2,2-dioxide]
activity (%) [1, 2]: 77%
melting point: 174 to 175 °C

O=S1(=O)CCN2CCCC(c3ccc(-c4ccccc4)cc3)C2=N1 (stereo not shown) [Example 64, 9-biphenyl-4-yl-3,4,6,7,8,9-hexahydropyrido[2,1-c][1,2,4]thiadiazine 2,2-dioxide]
activity (%) [1, 2]: 73%
melting point: 220 to 222 °C

O=S1(=O)CCN2CCCC(c3ccc(-c4ccccc4)cc3)C2=N1 (stereo not shown) [Example 65, 9-biphenyl-4-yl-3,4,6,7,8,9-hexahydropyrido[2,1-c][1,2,4]thiadiazine 2,2-dioxide]
activity (%) [1, 2]: 78%
melting point: 224 to 227 °C

CC(C)(C)COc1ccc(C2=CC=CN3CCS(=O)(=O)N=C23)cc1 [Example 67, 9-[4-(2,2-dimethylpropoxy)phenyl]-3,4-dihydropyrido[2,1-c][1,2,4]thiadiazine 2,2-dioxide]
activity (%) [1, 2]: 68%
melting point: 258 to 259 °C

O=S1(=O)CCN2C=CN=C(c3ccc(OC4CCCCC4)cc3)C2=N1 [Example 68, 9-[4-(cyclohexyloxy)phenyl]-3,4-dihydropyrazino[2,1-c][1,2,4]thiadiazine 2,2-dioxide]
activity (%) [1, 2]: 77%
melting point: 239 to 240 °C

O=S1(=O)CCN2C=CC=C(c3ccc(OCC4CCOCC4)cc3)C2=N1 [Example 69, 9-[4-(tetrahydro-2H-pyran-4-ylmethoxy)phenyl]-3,4-dihydropyrido[2,1-c][1,2,4]thiadiazine 2,2-dioxide]
activity (%) [1, 2]: 71%
melting point: 268 to 269 °C

O=S1(=O)CCN2C=C(Cl)C=C(c3ccc(OC4CCCCC4)cc3)C2=N1 [Example 73, 7-chloro-9-[4-(cyclohexyloxy)phenyl]-3,4-dihydropyrido[2,1-c][1,2,4]thiadiazine 2,2-dioxide]
activity (%) [1, 2]: 75%
melting point: 284 to 287 °C

O=S1(=O)CCN2C=CC=C(c3ccc(OCC4CCCO4)cc3)C2=N1 (stereo not shown) [Example 75, 9-[4-(tetrahydrofuran-2-ylmethoxy)phenyl]-3,4-dihydropyrido[2,1-c][1,2,4]thiadiazine 2,2-dioxide]
activity (%) [1, 2]: 81%
melting point: 222 to 223 °C

O=S1(=O)CCN2C=C(Cl)C=C(c3ccc(Oc4ncccc4C(F)(F)F)cc3)C2=N1 [Example 78, 7-chloro-9-(4-{[3-(trifluoromethyl)pyridin-2-yl]oxy}phenyl)-3,4-dihydropyrido[2,1-c][1,2,4]thiadiazine 2,2-dioxide]
activity (%) [1, 2]: 72%
melting point: 264 to 265 °C

O=S1(=O)CCN2C=C(Cl)C=C(c3ccc(Oc4ccnc(C(F)(F)F)c4)cc3)C2=N1 [Example 79, 7-chloro-9-(4-{[2-(trifluoromethyl)pyridin-4-yl]oxy}phenyl)-3,4-dihydropyrido[2,1-c][1,2,4]thiadiazine 2,2-dioxide]
activity (%) [1, 2]: 90%
melting point: 239 to 240 °C

O=S1(=O)CCN2C=C(Cl)C=C(c3ccc(Oc4ccccc4)cc3)C2=N1 [Example 81, 7-chloro-9-(4-phenoxyphenyl)-3,4-dihydropyrido[2,1-c][1,2,4]thiadiazine 2,2-dioxide]
activity (%) [1, 2]: 86%
melting point: 248 to 249 °C

Cc1ccc(Oc2ccc(C3=CC=CN4CCS(=O)(=O)N=C34)cc2)cc1 [Example 107, 9-[4-(4-methylphenoxy)phenyl]-3,4-dihydropyrido[2,1-c][1,2,4]thiadiazine 2,2-dioxide]
activity (%) [1, 2]: 69%
melting point: 248 to 249 °C

O=S1(=O)CCN2CCCC(c3ccc(Oc4ccc(C(F)(F)F)cc4)cc3)C2=N1 (stereo not shown) [Example 125, 9-{4-[4-(trifluoromethyl)phenoxy]phenyl}-3,4,6,7,8,9-hexahydropyrido[2,1-c][1,2,4]thiadiazine 2,2-dioxide]
activity (%) [1, 2]: 53%
melting point: 191 to 193 °C

Cc1ccc(C(F)(F)c2ccc(C3CCCN4CCS(=O)(=O)N=C34)cc2)cc1 (stereo not shown) [Example 137, 9-{4-[difluoro(4-methylphenyl)methyl]phenyl}-3,4,6,7,8,9-hexahydropyrido[2,1-c][1,2,4]thiadiazine 2,2-dioxide]
activity (%) [1, 2]: 61%
melting point: 190 to 191 °C

Cc1cc(F)ccc1Oc1ccc(C2=CC=CN3CCS(=O)(=O)N=C23)cc1 [Example 143, 9-[4-(4-fluoro-2-methylphenoxy)phenyl]-3,4-dihydropyrido[2,1-c][1,2,4]thiadiazine 2,2-dioxide]
activity (%) [1, 3]: 76%
melting point: 240 to 242 °C

O=S1(=O)CCN2C=CC=C(c3ccc(Oc4ccc(Cl)cc4)cc3)C2=N1 [Example 147, 9-[4-(4-chlorophenoxy)phenyl]-3,4-dihydropyrido[2,1-c][1,2,4]thiadiazine 2,2-dioxide]
activity (%) [1, 3]: 70%
melting point: 232 to 234 °C

O=S1(=O)CCN2CCCC(c3ccc(Oc4ccc(Cl)cc4)cc3)C2=N1 (stereo not shown) [Example 148, 9-[4-(4-chlorophenoxy)phenyl]-3,4,6,7,8,9-hexahydropyrido[2,1-c][1,2,4]thiadiazine 2,2-dioxide]
activity (%) [1, 3]: 73%
melting point: 215 to 216 °C

O=S1(=O)CCN2CCCC(c3ccc(Oc4ccc(Cl)c(Cl)c4)cc3)C2=N1 (stereo not shown) [Example 151, 9-[4-(3,4-dichlorophenoxy)phenyl]-3,4,6,7,8,9-hexahydropyrido[2,1-c][1,2,4]thiadiazine 2,2-dioxide]
activity (%) [1, 3]: 67%
melting point: 195 to 197 °C

CC(F)(F)c1cccc(Oc2ccc(C3CCCN4CCS(=O)(=O)N=C34)cc2)c1 (stereo not shown) [Example 157, 9-{4-[3-(1,1-difluoroethyl)phenoxy]phenyl}-3,4,6,7,8,9-hexahydropyrido[2,1-c][1,2,4]thiadiazine 2,2-dioxide]
activity (%) [1, 3]: 89%
melting point: 117 to 118 °C

O=S1(=O)CCN2CCCC(c3ccc(C(F)(F)F)cc3)C2=N1 (stereo not shown) [Example 175, 9-[4-(trifluoromethyl)phenyl]-3,4,6,7,8,9-hexahydropyrido[2,1-c][1,2,4]thiadiazine 2,2-dioxide]
activity (%) [1, 3]: 53%
melting point: 226 to 227 °C

O=S1(=O)CCN2C=CC=C(c3ccc(OC4CCCCC4)cc3)C2=N1 [Example 182, 9-[4-(cyclohexyloxy)phenyl]-3,4-dihydropyrido[2,1-c][1,2,4]thiadiazine 2,2-dioxide]
activity (%) [1, 3]: 80%
melting point: 272 to 274 °C

N#Cc1ccc(Oc2ccc(C3CCCN4CCS(=O)(=O)N=C34)cc2)cc1Cl (stereo not shown) [Example 183, 2-chloro-4-[4-(2,2-dioxido-3,4,6,7,8,9-hexahydropyrido[2,1-c][1,2,4]thiadiazin-9-yl)phenoxy]benzonitrile]
activity (%) [1, 3]: 91%
melting point: 219 to 220 °C

O=S1(=O)CCN2C=CC=C(c3ccc(Oc4ccccc4)nc3)C2=N1 [Example 191, 9-(6-phenoxypyridin-3-yl)-3,4-dihydropyrido[2,1-c][1,2,4]thiadiazine 2,2-dioxide]
activity (%) [1, 3]: 74%
melting point: 244 to 245 °C

O=S1(=O)CCN2C=CC=C(c3ccc(Oc4ccc(O)cc4)cc3)C2=N1 [Example 198, 4-[4-(2,2-dioxido-3,4-dihydropyrido[2,1-c][1,2,4]thiadiazin-9-yl)phenoxy]phenol]
activity (%) [1, 3]: 87%
melting point: 289 to 290 °C

O=S1(=O)CCN2C=CC=C(c3ccc(Oc4ccc(F)cc4)cc3)C2=N1 [Example 199, 9-[4-(4-fluorophenoxy)phenyl]-3,4-dihydropyrido[2,1-c][1,2,4]thiadiazine 2,2-dioxide]
activity (%) [1, 3]: 79%
melting point: 266 to 267 °C

O=S1(=O)CCN2CCCC(c3ccc(Oc4cccc(Cl)c4)cc3)C2=N1 (stereo not shown) [Example 201, 9-[4-(3-chlorophenoxy)phenyl]-3,4,6,7,8,9-hexahydropyrido[2,1-c][1,2,4]thiadiazine 2,2-dioxide]
activity (%) [1, 3]: 74%
melting point: 165 to 167 °C

COC1=C(c2ccc(Oc3ccccc3)cc2)C2=NS(=O)(=O)CCN2C=C1 [Example 204, 8-methoxy-9-(4-phenoxyphenyl)-3,4-dihydropyrido[2,1-c][1,2,4]thiadiazine 2,2-dioxide]
activity (%) [1, 3]: 70%
melting point: 269 to 270 °C

O=S1(=O)CCN2C=CC(Cl)=C(c3ccc(Oc4ccccc4)cc3)C2=N1 [Example 205, 8-chloro-9-(4-phenoxyphenyl)-3,4-dihydropyrido[2,1-c][1,2,4]thiadiazine 2,2-dioxide]
activity (%) [1, 3]: 67%
melting point: 283 to 284 °C

O=S1(=O)CCN2C=C(F)C=C(c3ccc(Oc4ccccc4)cc3)C2=N1 [Example 206, 7-fluoro-9-(4-phenoxyphenyl)-3,4-dihydropyrido[2,1-c][1,2,4]thiadiazine 2,2-dioxide]
activity (%) [1, 3]: 84%
melting point: 91.9 to 92 °C

CC1=CN2CCS(=O)(=O)N=C2C(c2ccc(Oc3ccccc3)cc2)=N1 [Example 207, 7-methyl-9-(4-phenoxyphenyl)-3,4-dihydropyrazino[2,1-c][1,2,4]thiadiazine 2,2-dioxide]
activity (%) [1, 3]: 78%
melting point: 92 to 92.5 °C
